Measurements taken from patent US10945612B2, “Assessing endothelial function using a blood pressure cuff” (The Regents of the University of California, priority 2014, dated 2021).
Entries after “also recorded” stand apart in the source; their conditions may differ.

Assays:
NO synthase = experiment: Cuff single pulse waveforms after endothelial stimulation with NO synthase blocked by L-NAME; type: in vivo, human; details: cuff inflated to 70 mm Hg; NO synthase blocked via L-NAME
From the text: Both the amplitude and slope of the rising edge of the pulse increase markedly after endothelial stimulation.
In an artery with intact endothelial function, both pulse height (maximal cross-sectional arterial area) and compliance (maximum slope of the rising edge) increase markedly over baseline. […] FIG. 4 illustrates how a five minute cuff occlusion and the ensuring reactive hyperemia lead to major increases in area change per pulse and the maximum derivative of the area per pulse. Both metrics return to baseline levels after 20 minutes. FIG. 5 confirms the repeatability of the protocol by illustrating the effects of a series of two cuff occlusion periods. We see from FIG. 6 that only a small slow drift in the measured quantities occurs when no reactive hyperemic stimulus is applied.

smooth muscle = details: 400 μg sublingual dose; Feldman et al. (1979), Adams et al. (1998); cited from earlier work
brachial artery = experiment: Cuff-based measurement of vasodilation (pulse amplitude relative to baseline) after sublingual nitroglycerin; type: in vivo, human
Procedure: Three individuals in the age-range of 28-38 were examined. All subjects had Framingham risk scores of 1% or less, and had no history of cardiovascular disease. Each individual was assessed at least three times before and after RH induced by five minutes of suprasystolic cuff occlusion. At least one additional measurement was made using the same protocol, except without cuff inflation. Sensitivity to a 0.4 mg dose of sublingual NG was assessed three times in two individuals.
Sensitivity to a 0.4 mg dose of sublingual NG was assessed three times in two individuals. In the analysis that follows, all of the datasets are pooled by stimulus. This addresses the question: Can the method measure changes in arterial tone due to vasorelaxatory stimuli and with what sensitivity?
A single quantity relating to the recorded pressure data, the pulse amplitude, was studied and it was posited that this is proportional to the arterial area. During the post stimulus interval, pressure data from the cuff were recorded approximately every 80 seconds, for a period of 30 seconds. During each recording interval, the cuff was inflated to 70 mm Hg, which was always below the measured diastolic pressure of the subject. To quantify the observed response, the mean of the pulse quantity (in this case, amplitude) during the response interval was divided by the mean value of the same quantity during the baseline interval. FIG. 10 illustrates the results.
v) The stimulus is applied. This is either 1-5 min of cuff occlusion to suprasystolic pressure Ps (for studies of endothelial function) or a dose of sublingual NG (for studies of endothelium-independent vasodilation).
(vi) After Tp=45 s have elapsed following cuff release or drug administration, a series of up to Nr=10 repeat measurement intervals ensue. In each interval, the cuff is inflated to Pm for Tm seconds, after which it is deflated for Tw seconds. This large number of repeat measurements (Nr)) is required only when one wishes to record the return of the vessel toward baseline.
[formula] and reported, e.g., to the user. […]

SMILES | compliance (maximum slope of the rising edge) increase over baseline after endothelial stimulation (NO synthase) | pulse height (maximal cross-sectional arterial area) increase over baseline after endothelial stimulation (NO synthase) | smooth muscle dilation (smooth muscle) | cDmax % (brachial artery; 400 μg sublingual NG, maximal vasodilation by the cuff-based method, relative to baseline) [%] | Mean ± SEM of maximum response over all data sets (dilation response) (brachial artery; 400 μg sublingual NG, ratio to baseline, pooled data sets) | Mean ± SEM of maximum Response over all data sets (amplitude response) (brachial artery; 0.4 mg sublingual NG, mean pulse amplitude in response interval divided by baseline, cuff at 70 mm Hg, pooled data sets)
COC(=O)[C@@H](N)CCCNC(=N)N[N+](=O)[O-] [L-NAME] | greatly attenuates this response; also recorded: greatly attenuated | greatly attenuates this response; also recorded: greatly attenuated | – | – | – | –
O=[N+]([O-])OCC(CO[N+](=O)[O-])O[N+](=O)[O-] [NG, nitroglycerin] | – | – | maximal smooth muscle dilation | 70 | 1.70 ± 0.036 | 1.70 ± 0.036
